From US8536180B2, “Pyrimidine inhibitors of kinase activity” (AbbVie Inc., priority 2009, dated 2013)

Target: T1, C-terminal GST-tagged, recombinant, human IGF-1R, amino acids 954-1367 (Homo sapiens, UniProt P08069)
T1 construct: human IGF-1R, amino acids 954-1367 expressed by baculovirus in Sf21 cells; GST (C); purchased Cell Signaling Technology; host or cells: baculovirus in Sf21 cells
Test: IGF-1R homogenous time-resolved fluorescence (HTRF) in vitro kinase assay
Assay type: biochemical
Conditions: IGF-1R kinase, ATP 50 μM final, biotinylated peptide substrate 0.5 μM, 60 minutes at room temperature
Description: IGF-1R kinase activity was assayed by a homogenous time-resolved fluorescence (HTRF) in vitro kinase assay (Mathis, G., HTRF(R) Technology. J Biomol Screen, 1999. 4(6): p. 309-314). Specifically, 10 μL C-terminal GST-tagged, recombinant, human IGF-1R, amino acids 954-1367 expressed by baculovirus in Sf21 cells (Cell Signaling Technology) was mixed with 10 μL inhibitor (various concentrations, 2% final DMSO) and 10 μL of ATP (50 μM final concentration) in reaction buffer (50 mM HEPES, pH 7.5, 10 mM MgCl2, 2 mM MnCl2, 0.1% BSA and 1 mM DTT, 40 μL final volume). The reaction was initiated by addition of 10 μL of biotinylated peptide substrate (Biotin-Ahx-[…], 0.5 μM final concentration) in a black 384-well plate (Packard). After 60 minutes incubation at room temperature, the reaction was quenched by addition of 60 μL stop/revelation buffer to give 30 mM EDTA, 1 μg/mL streptavidin-APC (Prozyme), 50 ng/mL anti-phosphotyrosine mAb PT66-K Europium Cryptate, 30 mM HEPES, pH 7.5, 120 mM KF, 0.005% Tween-20, 0.05% BSA). The quenched reaction was allowed to stand at room temperature for 1 hour and then read in a time-resolved fluorescence detector (Envision, Perkin Elmer) at 615 nm and 665 nm simultaneously. The ratio between the signal of 615 nm and 665 nm was used in the calculation of the IC50.

T1 sequence (P08069 954-1367): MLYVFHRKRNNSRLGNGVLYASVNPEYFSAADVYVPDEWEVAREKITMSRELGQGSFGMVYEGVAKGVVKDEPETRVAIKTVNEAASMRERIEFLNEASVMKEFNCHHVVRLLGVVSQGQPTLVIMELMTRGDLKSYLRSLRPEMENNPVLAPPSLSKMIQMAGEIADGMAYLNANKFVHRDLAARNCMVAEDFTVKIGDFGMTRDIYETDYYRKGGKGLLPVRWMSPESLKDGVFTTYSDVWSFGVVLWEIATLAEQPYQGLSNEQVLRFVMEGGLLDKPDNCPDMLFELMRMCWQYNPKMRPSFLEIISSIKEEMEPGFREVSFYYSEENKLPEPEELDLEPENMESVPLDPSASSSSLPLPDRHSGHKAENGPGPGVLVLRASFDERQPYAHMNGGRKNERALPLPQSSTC

| SMILES | IC50 |
| --- | --- |
| COc1ccccc1Cc1nc2ccc(-c3nc4sccn4c3-c3ccnc(Nc4ccc(N(C)C)cc4OC)n3)cc2[nH]1 [Example 34, 2-methoxy-N^1-(4-{6-[2-(2-methoxybenzyl)-1H-benzimidazol-6-yl]imidazo[2,1-b][1,3]thiazol-5-yl}pyrimidin-2-yl)-N^4,N^4-dimethylbenzene-1,4-diamine] | 10 to 50 nM |
| COc1ccccc1Nc1nccc(-c2c(-c3ccc4nc(Cc5ccccc5)[nH]c4c3)nc3sccn23)n1 [Example 24, 4-[6-(2-benzyl-1H-benzimidazol-6-yl)imidazo[2,1-b][1,3]thiazol-5-yl]-N-(2-methoxyphenyl)pyrimidin-2-amine] | 10 to 50 nM |
| Fc1ccc(Nc2nccc(-c3c(-c4ccc5nc(-c6ccccc6)[nH]c5c4)nc4ccccn34)n2)c(F)c1 [Example 40, N-(2,4-difluorophenyl)-4-[2-(2-phenyl-1H-benzimidazol-6-yl)imidazo[1,2-a]pyridin-3-yl]pyrimidin-2-amine] | > 500 nM |
| Fc1ccc(Nc2nccc(-c3c(-c4ccc5nc(-c6ccccc6)[nH]c5c4)nc4ccccn34)n2)cc1 [Example 38, N-(4-fluorophenyl)-4-[2-(2-phenyl-1H-benzimidazol-6-yl)imidazo[1,2-a]pyridin-3-yl]pyrimidin-2-amine] | 101 to 500 nM |
| CN(C)S(=O)(=O)c1cccc(Nc2nccc(-c3c(-c4ccc5nc(Cc6ccccc6)[nH]c5c4)nc4ccccn34)n2)c1 [Example 17, 3-({4-[2-(2-benzyl-1H-benzimidazol-6-yl)imidazo[1,2-a]pyridin-3-yl]pyrimidin-2-yl}amino)-N,N-dimethylbenzenesulfonamide] | 101 to 500 nM |
| CN(C)CCc1cccc(Nc2nccc(-c3c(-c4ccc5nc(CCc6ccccc6)[nH]c5c4)nc4ccccn34)n2)c1 [Example 10, N-{3-[2-(dimethylamino)ethyl]phenyl}-4-{2-[2-(2-phenylethyl)-1H-benzimidazol-6-yl]imidazo[1,2-a]pyridin-3-yl}pyrimidin-2-amine] | 10 to 50 nM |
| CCn1cc(-c2ccnc(Nc3ccc(N4CCC(N(C)C)CC4)cc3OC)n2)c(-c2ccc3[nH]c(Cc4ccccc4Cl)nc3c2)n1 [Example 67, 4-{3-[2-(2-chlorobenzyl)-1H-benzimidazol-5-yl]-1-ethyl-1H-pyrazol-4-yl}-N-{4-[4-(dimethylamino)piperidin-1-yl]-2-methoxyphenyl}pyrimidin-2-amine] | 51 to 100 nM |
| Cn1cc(Nc2nccc(-c3c(-c4ccc5[nH]c(-c6ccccc6)nc5c4)nc4ccccn34)n2)cn1 [Example 44, N-(1-methyl-1H-pyrazol-4-yl)-4-[2-(2-phenyl-1H-benzimidazol-5-yl)imidazo[1,2-a]pyridin-3-yl]pyrimidin-2-amine] | > 500 nM |
| CN(C)CCc1cccc(Nc2nccc(-c3c(-c4ccc5nc(-c6ccccc6)[nH]c5c4)nc4ccccn34)n2)c1 [Example 13, N-{3-[2-(dimethylamino)ethyl]phenyl}-4-[2-(2-phenyl-1H-benzimidazol-6-yl)imidazo[1,2-a]pyridin-3-yl]pyrimidin-2-amine] | 10 to 50 nM |
| FC(F)(F)c1ccccc1Cc1nc2ccc(-c3nc4sccn4c3-c3ccnc(Nc4ccccc4CN4CCCC4)n3)cc2[nH]1 [Example 42, N-[2-(pyrrolidin-1-ylmethyl)phenyl]-4-(6-{2-[2-(trifluoromethyl)benzyl]-1H-benzimidazol-6-yl}imidazo[2,1-b][1,3]thiazol-5-yl)pyrimidin-2-amine] | > 500 nM |
| CS(=O)(=O)c1ccc(Nc2nccc(-c3c(-c4ccc5nc(Cc6ccccc6)[nH]c5c4)nc4ccccn34)n2)cc1 [Example 18, 4-[2-(2-benzyl-1H-benzimidazol-6-yl)imidazo[1,2-a]pyridin-3-yl]-N-[4-(methylsulfonyl)phenyl]pyrimidin-2-amine] | 51 to 100 nM |
| CCn1cc(-c2ccnc(Nc3cccc(CN(C)C)c3)n2)c(-c2ccc3[nH]c(Cc4ccccc4OC)nc3c2)n1 [Example 60, N-{3-[(dimethylamino)methyl]phenyl}-4-{1-ethyl-3-[2-(2-methoxybenzyl)-1H-benzimidazol-5-yl]-1H-pyrazol-4-yl}pyrimidin-2-amine] | 10 to 50 nM |
| COc1ccccc1Cc1nc2cc(-c3nc4ccccn4c3-c3ccnc(Nc4cccc(CCN(C)C)c4)n3)ccc2[nH]1 [Example 3, N-{3-[2-(dimethylamino)ethyl]phenyl}-4-{2-[2-(2-methoxybenzyl)-1H-benzimidazol-5-yl]imidazo[1,2-a]pyridin-3-yl}pyrimidin-2-amine] | < 10 nM |
| COc1cc(N2CCC(N(C)C)CC2)ccc1Nc1nccc(-c2c(-c3ccc4nc(Cc5ccccc5Cl)[nH]c4c3)nc3sccn23)n1 [Example 54, 4-{6-[2-(2-chlorobenzyl)-1H-benzimidazol-6-yl]imidazo[2,1-b][1,3]thiazol-5-yl}-N-{4-[4-(dimethylamino)piperidin-1-yl]-2-methoxyphenyl}pyrimidin-2-amine] | < 10 nM |
| CN(C)CCc1cccc(Nc2nccc(-c3c(-c4ccc5nc(Nc6ccccc6)[nH]c5c4)nc4ccccn34)n2)c1 [Example 12, 6-{3-[2-({3-[2-(dimethylamino)ethyl]phenyl}amino)pyrimidin-4-yl]imidazo[1,2-a]pyridin-2-yl}-N-phenyl-1H-benzimidazol-2-amine] | < 10 nM |
| COc1cc(N2CCC(N(C)C)CC2)ccc1Nc1nccc(-c2c(-c3ccc4nc(Cc5ccccc5C(F)(F)F)[nH]c4c3)nc3sccn23)n1 [Example 52, N-{4-[4-(dimethylamino)piperidin-1-yl]-2-methoxyphenyl}-4-(6-{2-[2-(trifluoromethyl)benzyl]-1H-benzimidazol-6-yl}imidazo[2,1-b][1,3]thiazol-5-yl)pyrimidin-2-amine] | < 10 nM |
| c1ccc(Nc2nccc(-c3c(-c4ccc5nc(-c6ccccc6)[nH]c5c4)nc4ccccn34)n2)cc1 [Example 11, N-phenyl-4-[2-(2-phenyl-1H-benzimidazol-6-yl)imidazo[1,2-a]pyridin-3-yl]pyrimidin-2-amine] | 101 to 500 nM |

Results, then the molecule that gave them:

| IC50 | SMILES |
| --- | --- |
| 101 to 500 nM | COc1cc(Cl)ccc1Nc1nccc(-c2c(-c3ccc4nc(Cc5ccccc5)[nH]c4c3)nc3ccccn23)n1 [Example 32, 4-[2-(2-benzyl-1H-benzimidazol-6-yl)imidazo[1,2-a]pyridin-3-yl]-N-(4-chloro-2-methoxyphenyl)pyrimidin-2-amine] |
| 10 to 50 nM | COc1cc(NCC(=O)O)ccc1Nc1nccc(-c2c(-c3ccc4[nH]c(Cc5ccccc5)nc4c3)nc3ccccn23)n1 [Example 49, N-[4-({4-[2-(2-benzyl-1H-benzimidazol-5-yl)imidazo[1,2-a]pyridin-3-yl]pyrimidin-2-yl}amino)-3-methoxyphenyl]glycine] |
| 51 to 100 nM | COc1ccccc1Cc1nc2ccc(-c3nc4ccccn4c3-c3ccnc(Nc4ccc(N5CCOCC5)cc4OC)n3)cc2[nH]1 [Example 20, 4-{2-[2-(2-methoxybenzyl)-1H-benzimidazol-6-yl]imidazo[1,2-a]pyridin-3-yl}-N-(2-methoxy-4-morpholin-4-ylphenyl)pyrimidin-2-amine] |
| 10 to 50 nM | COc1cc(N(C)CCO)ccc1Nc1nccc(-c2c(-c3ccc4nc(Cc5ccccc5)[nH]c4c3)nc3ccccn23)n1 [Example 48, 2-[[4-({4-[2-(2-benzyl-1H-benzimidazol-6-yl)imidazo[1,2-a]pyridin-3-yl]pyrimidin-2-yl}amino)-3-methoxyphenyl](methyl)amino]ethanol] |
| 10 to 50 nM | COc1ccc(S(C)(=O)=O)cc1Nc1nccc(-c2c(-c3ccc4nc(Cc5ccccc5)[nH]c4c3)nc3ccccn23)n1 [Example 43, 4-[2-(2-benzyl-1H-benzimidazol-6-yl)imidazo[1,2-a]pyridin-3-yl]-N-[2-methoxy-5-(methylsulfonyl)phenyl]pyrimidin-2-amine] |
| < 10 nM | COc1cc(N2CCC(N3CCN(C)CC3)CC2)ccc1Nc1nccc(-c2c(-c3ccc4[nH]c(Cc5ccccc5)nc4c3)nc3ccccn23)n1 [Example 22, 4-[2-(2-benzyl-1H-benzimidazol-5-yl)imidazo[1,2-a]pyridin-3-yl]-N-{2-methoxy-4-[4-(4-methylpiperazin-1-yl)piperidin-1-yl]phenyl}pyrimidin-2-amine] |
| 10 to 50 nM | COc1ccc(CN(C)CCO)cc1Nc1nccc(-c2c(-c3ccc4nc(Cc5ccccc5)[nH]c4c3)nc3ccccn23)n1 [Example 50, 2-[[3-({4-[2-(2-benzyl-1H-benzimidazol-6-yl)imidazo[1,2-a]pyridin-3-yl]pyrimidin-2-yl}amino)-4-methoxybenzyl](methyl)amino]ethanol] |
| 51 to 100 nM | Fc1ccc(Nc2nccc(-c3c(-c4ccc5[nH]c(Cc6ccccc6)nc5c4)nc4ccccn34)n2)cc1 [Example 39, 4-[2-(2-benzyl-1H-benzimidazol-5-yl)imidazo[1,2-a]pyridin-3-yl]-N-(4-fluorophenyl)pyrimidin-2-amine] |
| 10 to 50 nM | c1ccc(Cc2nc3cc(-c4nc5ccccn5c4-c4ccnc(Nc5ccccc5)n4)ccc3[nH]2)cc1 [Example 4, 4-[2-(2-benzyl-1H-benzimidazol-5-yl)imidazo[1,2-a]pyridin-3-yl]-N-phenylpyrimidin-2-amine] |
